Measurements taken from patent US10092574B2, “Inhibitors of polynucleotide repeat-associated RNA foci and uses thereof” (VALORISATION-RECHERCHE, LIMITED PARTNERSHIP, priority 2013, dated 2018).

Legend:
MBNL2 exon 7 = test: RT-PCR alternative splicing assay, MBNL2 exon 7; format: cell-based, human; settings: DM1 myoblasts
Protocol: Human myoblasts were obtained from the Myosix institute associated with the Association Frangaise contre les Myopathies (AFM). Five primary myoblast lines were obtained as controls, and one line from a DM1 patient with a 3.8 Kb CTG triplet amplification corresponding to approximately 1250 CTG repeats. The human myoblasts are cultivated in HAM-F10 media (SIGMA N6635) with 15% FBS, 1% chick embryo extract, and 390 ng/ml of dexamethasone. One day before adding compounds, 2×10^5 cells were plated in 100 mm plates (for CUGBP1 western blot or RT-PCR alternative splicing assay) or 2×10^4 cells/well are seeded in 12-well plates containing 12 mm round glass coverslips (for FISH to detect RNA foci). […]
For Western blots, CUGBP1 was detected with the 3B1-3D11 monoclonal antibody (mAb) (SIGMA C5112) and GAPDH was detected with the 6C5 mAb (Millipore MAB374). The enhanced chemiluminescence signal (ECL) was acquired and quantified with the ChemiDoc™ MP imaging system (Bio-Rad). […] The alternative splicing of the hnRNPA2/B1 transcript was detected with the primers 5′-[…]-3′ (SEQ ID NO:7) and 5′-[…]-3′ (SEQ ID NO:8). PCR was performed with Taq using standard conditions but the number of amplification cycles was optimized to be in the quantitative range for each gene. […]

Normal or DM1 myoblasts = test: Cytotoxicity assay (Hoescht 33342 / propidium iodide, High Content Screening microscope); format: cell-based, human; settings: for cellular toxicity: 7 days (FIG. 10)
Protocol: The cellular toxicity of compounds 15 and 32, and their analogs was also measured using a validated cytotoxicity assay. Normal or DM1 myoblasts were treated with 20 μM of compound or DMSO. The ratio of viable cells was measured with a High Content Screening microscope in live cells treated with Hoescht 33342 (labels all cells) and propidium iodide (labels dead cells). The total number of cells was counted and the number of dead cells was subtracted to obtain the number of viable cells, which is presented as a ratio (drug-treated versus DMSO-treated cells). The percentage of dead cells was also measured using propidium iodide.
The cellular toxicity of the compounds was also measured in a dose-response assay. In this assay, normal (M908) and patient (DM1) myoblasts were treated for 7 days with compound 32 or 196 at concentrations varying from 5 to 60 μM. Cell number and cell death was quantified by High Content Screening microscope, as specified above. […] Indeed, the ratio of viable cells at 20 μM of compound 15 is 0.22 (FIG. 10), while for compound 196, an analogue of compound 15, it is above 1 at the same concentration (FIG. 14C).

Row | SMILES | inclusion of MBNL2 exon 7 (MBNL2 exon 7; 20 μM, 7 days, from 40% (FIG. 8D)) [%] | cellular toxicity (Normal or DM1 myoblasts; 20 μM) | ratio of viable cells (drug-treated versus DMSO-treated) (Normal or DM1 myoblasts; 20 μM, 7 days (FIG. 10, FIG. 14C)) | dose-response effect on splicing of MBNL2 mRNA (MBNL2 exon 7; 5 to 60 μM, 7 days (FIG. 12A)) | main phenotype at higher concentrations (Normal or DM1 myoblasts; normal (M908) and DM1 myoblasts, 7 days, 5 to 60 μM) | cytotoxicity in dose-response assay (Normal or DM1 myoblasts; normal (M908) and DM1 myoblasts, 7 days, concentration of 20 μM and below (FIGS. 14A-D))
1 | CCCN(CCC)S(=O)(=O)c1ccc(NS(=O)(=O)Cc2ccccc2)cc1 [Compound 15] | 25 | some toxicity | 0.22 |  |  | 
2 | CCCc1c(C(=O)N(Cc2ccccc2)Cc2cccs2)cnn1-c1ccccc1 [Compound 32] |  | little toxicity |  | clear dose-response effect | cytostatic effect | little cytotoxicity
